Data: patent publication US6589325B1, “Phthalocyanine compounds, water-base ink compositions and colored products” (Nippon Kayaku Kabushiki Kaisha, priority 1999, dated 2003)

Columns and labels:
[1] = light fastness of recorded image, carbon arc fade meter; type: physicochemical; settings: for light fastness (summary in words): depending on the kind of recording material; for Light fastness Judgment / Light fastness (ΔE): carbon arc 20 hours; for Light fastness Judgment: blue scale JIS L-0841; for Light fastness (ΔE): color difference before/after
Method: (§1) The solution of the composition as described below was prepared and filtered through a 0.45 μm membrane filter to prepare the water-based ink compositions for ink-jetting. Ion-exchanged water was used. The water-based ink compositions were prepared with water and ammonium hydroxide to have a pH of 8-10 and a total amount of 100 parts.
(§2) By using an ink-jet printer (Trade name: PICTY80L, made by NEC KK), ink-jet recordings were done on three kinds of recording paper: a plain paper (Printer Paper A4, TLB5A4S, made by Canon KK), a special paper A (Color BJ Paper LC101, made by Canon KK), a special paper B (Color Image Jet Coat Paper STX73A4, made by Sharp KK). The test results on hue, light fastness, water fastness and color rendering property in recorded images by the water-based ink compositions (containing the compounds of Example 1 to 2) of the present invention are shown in Table 2.
(§3) The ink compositions for two comparative examples were prepared so as to coincide in optical density with the black ink of the present invention as in the above (A), but the respective ink compositions contained C.I. Direct Black 19 (represented by following Formula), an azo colorant generally applied for an ink-jet black colorant (Comparative example 1) and the compound (represented by following Formula) described in JP Laid-Open No. 140270/1990 (Comparative example 2) respectively in place of the colorant. The test results on hue, light fastness, water fastness and color rendering property in recorded images pictured by the ink compositions for the comparative examples also are shown in Table 2. [drawing 4]
A carbon arc fade meter (by Suga Testing Machine KK) was used to irradiate carbon arc on the recorded image for 20 hours. Grade was determined based on blue scale grade as prescribed in JIS L-0841. Color difference (ΔE) between before and after the irradiation also was determined by the above colorimetry system.

[2] = water fastness of recorded image, stirred in water; type: physicochemical; settings: for water fastness (summary in words): plain paper and special paper; for Water fastness Judgment / Water fastness (ΔE): stirred in water 2 min; for Water fastness Judgment: JIS fading gray scale; for Water fastness (ΔE): color difference before/after
Method: as §1, §2, §3
The recorded material was set in a beaker filled with water, stirred for 2 min and air-dried. The change in the recorded image was determined based on the JIS fading gray scale. Color difference (ΔE) between before and after the treatment also was determined by the above colorimetry system.

Row | light fastness (summary in words) [1] | Light fastness Judgment ([1]; plain paper) | Light fastness (ΔE) ([1]; plain paper) | Light fastness Judgment ([1]; special paper A) | Light fastness (ΔE) ([1]; special paper A) | Light fastness Judgment ([1]; special paper B) | Light fastness (ΔE) ([1]; special paper B) | water fastness (summary in words) [2] | Water fastness Judgment ([2]; plain paper) | Water fastness (ΔE) ([2]; plain paper) | Water fastness Judgment ([2]; special paper A) | Water fastness (ΔE) ([2]; special paper A) | Water fastness Judgment ([2]; special paper B) | Water fastness (ΔE) ([2]; special paper B) | Compound
1 | unstable quality | Grade 4 | (2.0) | Grade 3-4 | (4.1) | Grade 4 | (1.5) | inferior | Grade 2 | (11.5) | Grade 4 | (2.9) | Grade 4 | (2.8) | Nc1ccc(N=Nc2ccc(N=Nc3c(S(=O)(=O)[O-])cc4cc(S(=O)(=O)[O-])c(N=Nc5ccc(N=Nc6ccc(N)cc6N)cc5)c(O)c4c3N)cc2)c(N)c1.[Na+].[Na+] [Comparative Example 1, C.I. Direct Black 19]
2 | unstable quality | Grade 4 | (1.3) | Grade 3 | (8.0) | Grade 4 | (2.8) | inferior | Grade 3 | (6.2) | Grade 5 | (1.0) | Grade 2 | (10.3) | Nc1ccc2cc(S(=O)(=O)O)c(N=Nc3ccc(N=Nc4cc(C(=O)O)cc(C(=O)O)c4)c4ccccc34)c(O)c2c1 [Comparative Example 2]
